Data: patent publication US20150094264A1, “USE OF OBESTATIN FOR MUSCLE REGENERATION” (UNIVERSIDADE DE SANTIAGO DE COMPOSTELA, priority 2012, published 2015)
Entries after “also recorded” stand apart in the source; their conditions may differ.

Experiments:
AMPKa = assay: Dephosphorylation/inactivation of AMPKa [pAMPKa(T172)] by obestatin in L6E9 cells, immunoblot; type: cell-based, rat; conditions: obestatin 5 nM; L6E9 myoblasts (both cell models)
Procedure: FIG. 1. Activation of regulatory enzymes of mitogenesis and myogenesis by obestatin in L6E9 myoblasts and myotubes. Effect of obestatin on activity of regulatory enzymes of the mitogenic capacity (ERK 1/2), metabolic capacity (Akt and AMPK) and myogenic capacity (Akt and p38). Based on a dose-response study, the saturating dose for the maximum enzymatic activation is established for a concentration of 5 nM. […] Inactivation of AMPK is described in both cell models. The activation profile discovers bimodal characteristics for the action of obestatin: 1.—mitogenic activation in myoblasts; and, 2.—myogenic activation. The immunoblots are representative of 6 independent assays. […]
The tissue or cell samples were directly lysed in RIPA buffer [Tris-HCl (pH 7.2), 50 mM; NaCl, 150 mM; EDTA, 1 mM; NP-40, 1% (v/v); Sodium deoxycholate, 0.25% (w/v); protease inhibitors (Sigma); phosphatise inhibitors (Sigma)]. The lysates were clarified by centrifugation (14,000×g during 15 min at 4° C.) and the protein concentration was quantified using QuantiPro™ BCA assay kit (Sigma). […] The immunoreactive bands were detected by chemiluminescence (Pierce ECL Western Blotting Substrate; Thermo Scientific, Ill., USA). […]

L6E9 myoblasts [1] = assay: Cicatrization capacity (migration/invasion) in L6E9 myoblasts; type: cell-based, rat; conditions: obestatin 5 nM
Procedure: FIG. 6. Evaluation of the cicatrization capacity (migration/invasion) of obestatin in L6E9 myoblasts. A: the L6E9 myoblasts grew to 100% of confluence in GM and later the damage was induced with a sterile pipette. The cells were maintained in GM or GM-obestatin (5 nM) during 8 and 24 hours after the induction of cell damage (40× magnification). B: quantification of the % of cicatrization (mean±standard error; *, p<0.05).
The L6E9 cells were cultured until reaching a confluence of 100% in GM. Having reached said confluence, the damage was produced by the use of a sterile pipette point which made it possible to perform two linear and perpendicular channels. After the damage, the cells were washed and cultured with GM or GM+obestatin (5 nM). The progress of the migration was immediately photographed after the damage and at 8 and 24 hours, close to the crossing point. The “invaded” area was calculated by tracing the “cicatrization” edge and using ImageJ64 software. The percentage of cicatrization was calculated based on the following equation:% cicatrization=[(area 0 h−area xh)/area 0 h]×100.

L6E9 myoblasts [2] = assay: Mitogenic effect (number of cells) in L6E9 myoblasts in growth medium; type: cell-based, rat
Procedure: FIG. 2. Mitogenic effect of obestatin in L6E9 myoblasts. Mitogenic effect of different doses of obestatin (0.01-100 nM) in L6E9 myoblasts after 48 hours of stimulation in the presence of growth medium [GM: DMEN+10% FBS]. Co: initial number of cells. Control: number of cells after 48 hours in GM. GM+obestatin: number of cells after 48 hours of stimulation with obestatin in GM. The data are expressed as mean±standard error of 4 independent experiments (*, p<0.05).
(§1) The studies were performed based on the use of L6E9 rat myoblasts which were maintained in growth medium (GM) formed by DMEM (Dulbecco's Modified Eagle Medium) supplemented with 10% fetal bovine serum (FBS), 100 U/mL penicillin, and 100 U/mL streptomycin. For the differentiation, the cells were cultured at 80-100% of confluence in GM and it was replaced for differentiation medium (DM) formed by DMEM supplemented with 2% FBS, 100 U/mL penicillin, and 100 U/mL streptomycin during 6 days.
Dose-dependent studies performed on myoblasts with different obestatin concentrations (0.01-100 nM) in GM (proliferative conditions) show a maximum increase in the number of cells at 48 hours post-stimulation at a concentration of 5.0 nM obestatin (˜2.2-increased in relation to the control; FIG. 2).

[3] = test system: L6E9 cells (rat myoblasts); assay: Expression of myogenic markers myogenin and MHC in L6E9 cells in differentiation medium, immunoblot; type: cell-based; conditions: DM, six days
Description: FIG. 3. Effect of obestatin on the expression of the myogenic markers myogenin and MHC in L6E9 myoblasts. Effect of the stimulation with different doses of obestatin (0.01-100) on the expression of the myogenic markers myogenin and myosin (MHC) 6 days after the induction of the differentiation by the use of differentiation medium (DM: DMEN+2% FBS). The protein expression levels refer to the levels of myoblasts in growth medium (GM: DMEN+10% FBS), non-differentiated. The data are represented as % with respect to the cell expression in GM (mean±standard error of 6 independent experiments). The evaluation of the degree of expression was performed by immunoblot by the use of the ImageJ64 program (*, p<0.05).
as §1
The tissue or cell samples were directly lysed in RIPA buffer [Tris-HCl (pH 7.2), 50 mM; NaCl, 150 mM; EDTA, 1 mM; NP-40, 1% (v/v); Sodium deoxycholate, 0.25% (w/v); protease inhibitors (Sigma); phosphatise inhibitors (Sigma)]. The lysates were clarified by centrifugation (14,000×g during 15 min at 4° C.) and the protein concentration was quantified using QuantiPro™ BCA assay kit (Sigma). For immunoblot, equal amounts of protein were loaded which were fractionated in SOS-PAGE gels and transferred to nitrocellulose membranes. The immunoreactive bands were detected by chemiluminescence (Pierce ECL Western Blotting Substrate; Thermo Scientific, Ill., USA).
The L6E9 cells were cultured in DM complemented with different concentrations of obestatin in a range of 0.01-100 nM during six days.

Substance: obestatin
- effect on AMPKa phosphorylation in T172 [pAMPKa(T172)] (AMPKa): Inactivation; also recorded: dephosphorylates
- increase of migration index (cicatrization) in relation to control cells (L6E9 myoblasts [1]; 8 hours after inducing cell damage): 53%
- increase of migration index (cicatrization) in relation to control cells (L6E9 myoblasts [1]; 24 hours after inducing cell damage): 21%
- maximum increase in the number of cells in relation to the control (L6E9 myoblasts [2]; 5.0 nM obestatin, 48 hours post-stimulation, GM (DMEM+10% FBS)): ~2.2
- obestatin concentration of maximum increase in the number of cells (L6E9 myoblasts [2]; range 0.01-100 nM, 48 hours, GM): 5.0 nM
- increase of MHC expression in relation to the control cells ([3]; 5 nM obestatin): −1.6
- increase of myogenin expression in relation to the control cells ([3]; 5 nM obestatin): −1.7
- obestatin concentration of maximum effect on myogenin and MHC expression ([3]; range 0.01-100 nM): 5 nM
